In brackets after ≈: the same amount, converted by molar mass. Residues, ends and D or L forms follow the SMILES beside them.
What was measured:
HeLa cells = experiment: in vitro; type: cell-based, human
Description: (§1) HeLa cells were grown in Dulbecco's Modified Eagle Medium (DMEM) supplemented with penicillin (10 units/mL), streptomycin (10 units/mL), […] (2 mM), and heat-inactivated fetal bovine serum (10% v/v) at 37° C. in a 5% CO2 atmosphere. HeLa cells were seeded into 384-well plates (500 cells per well) and incubated in DMEM at 37° C. with 5% CO2 for 16 h to allow cells to adhere. The OD570 readings were used to calculate relative growth (%) based on the positive (2 μM Taxol™, 0%) and negative (DMSO, 100%) controls. The cytotoxicity assay was performed in quadruplicate (n=4) and analyzed according to protocol reported previously (Chu Jet al., 2019, J. Am. Chem. Soc., 141:15737-15741).

in vitro = type: cell-based, human; conditions: human
Description: as §1

[1] = tested on: S. aureus farER deletion mutant with constitutive overexpression of the farER effux system (pALCfarER)
[2] = tested on: S. aureus farER deletion mutant
S. aureus SH1000 ΔclpP = conditions: clpP deletion
S. aureus or B. subtilis = experiment: Membrane lysis assay (SYTOX fluorescence); type: cell-based; conditions: initial assays, FIG. 4C and 4D
[3] = tested on: Bacillus subtilis, Escherichia coli, and the ESKAPE pathogens; experiment: Antibacterial activity / MIC against screening panel of bacteria; type: cell-based; conditions: panel of Gram-positive and Gram-negative bacteria, FIG. 4A
Excerpt: To identify antibacterial active syn-BNPs, each fraction, containing the mass of a target syn-BNP cyclic peptide against Bacillus subtilis, Escherichia coli, and the ESKAPE pathogens, was screened. ESKAPE pathogens represented the bacteria most commonly associated with antibiotic-resistant nosocomial infections: Enterococcus faecium, Staphylococcus aureus, Klebsiella pneumoniae, Acinetobacter baumannii, Pseudomonas aeruginosa, and Enterobacter cloacae (Boucher H W et al., 2009, Clin. Infect. Dis., 48:1-12).
In the initial screen, semi-pure peptides were spotted on solid growth media seeded with each bacterium. […]
Standard susceptibility assays were performed in the appropriate growth medium in 96-well microtiter plates to determine the MIC by the broth microdilution method in accordance to protocols recommended by Clinical and Laboratory Standards Institute (Weinstein MP, 2012, Methods for dilution antimicrobial susceptibility tests for bacteria that grow aerobically, 9th edition; Clinical and Laboratory Standards Institute, Wayne, Pa.). For polymyxin-supplemented assays, the MIC of polymyxin against a bacterium was first determined (lx MIC). […] The measured MICs were as follows: E. coli DH5α (0.0625 μg/mL), K. pneumoniae and P. aeruginosa (0.15 μg/mL), A. baumannii ([…]), and E. cloacae (2 μg/mL). […]

A. baumannii = experiment: MIC determination by broth microdilution; type: cell-based, Acinetobacter baumannii
E. coli DH5α = experiment: MIC determination by broth microdilution; type: cell-based, Escherichia coli
P. aeruginosa = experiment: MIC determination by broth microdilution; type: cell-based, Pseudomonas aeruginosa
M. tuberculosis H37Rv = conditions: highest concentration tested 12.5 μg/mL

Question: What does the source list for `CCCCCCCCCCCC1CC(=O)N[C@H](CC(C)C)C(=O)N[C@H](CN)C(=O)N[C@@H](C(C)C)C(=O)N[C@@H](CO)C(=O)N[C@@H]([C@@H](C)CC)C(=O)N1` (stereo partly drawn) [SyCPA 116, collimosyn] (HELM PEPTIDE1{I.[CCCCCCCCCCCC(CC(=O)[*:2])N[*:1]].[dL].[NC[C@@H](N[*:1])C(=O)[*:2]].V.S}$PEPTIDE1,PEPTIDE1,1:R1-6:R2$$$V2.0)?
Answer: Cytotoxicity (in words) (HeLa cells): showed human cell line toxicity; IC50 (in vitro): 11 µg/mL (≈ 15.2 µM); MIC [1]: > 64 µg/mL; MIC [2]: 8 µg/mL (≈ 11 µM); Resistance (MIC) (S. aureus SH1000 ΔclpP): > 128 µg/mL

Question: Which IC50 (in vitro) does the source give for `CCCCCCCCCCCCCC(=O)N[C@@H]1CNC(=O)[C@@H]2CCCN2C(=O)[C@H](Cc2ccccc2)NC(=O)[C@@H](C(C)C)NC(=O)[C@H](C)NC(=O)[C@@H](CCC(N)=O)NC(=O)[C@H]2CCCN2C1=O` [SyCPA 2] (HELM PEPTIDE1{[CCCCCCCCCCCCCC(=O)[*:2]].[O=C([C@@H](CN[*:3])N[*:1])[*:2]].[dP].[dQ].A.[dV].F.P}$PEPTIDE1,PEPTIDE1,2:R3-8:R2$$$V2.0) here?
Answer: The IC50 was 16 µg/mL (≈ 17.1 µM).

Question: What about the “SYTOX or DiSC3(5) fluorescence” value (S. aureus or B. subtilis) of the same compound?
Answer: Its value is “slight increase in either SYTOX or DiSC3(5) fluorescence”.

Question: And the Spectrum of activity [3]?
Answer: The Spectrum of activity was “broader Gram-positive activity”.

Question: For polymyxin, which MIC of polymyxin (K. pneumoniae) is on record?
Answer: Its MIC of polymyxin is 0.15 µg/mL.

Question: What about the MIC of polymyxin (A. baumannii) of the same compound?
Answer: The MIC of polymyxin was 0.3 μ/mL.

Question: What about the MIC of polymyxin (E. coli DH5α) of the same compound?
Answer: The MIC of polymyxin was 0.0625 µg/mL.

Question: What about the MIC of polymyxin (P. aeruginosa) of the same compound?
Answer: Its MIC of polymyxin is 0.15 µg/mL.

Question: For `CCCCCCCCCCCCCC(=O)N[C@H]1CCCNC(=O)[C@H](CC(C)C)NC(=O)[C@H](CCCNC(=N)N)NC(=O)[C@H]([C@@H](C)CC)NC(=O)[C@@H](CCCNC(=N)N)NC1=O` [SyCPA 63, thurinsyn] (HELM PEPTIDE1{[CCCCCCCCCCCCCC(=O)[*:2]].[Orn].[dR].I.R.L}$PEPTIDE1,PEPTIDE1,2:R3-6:R2$$$V2.0), which “Cytotoxicity (in words)” value (HeLa cells) is on record?
Answer: The value was “minimal HeLa cell cytotoxicity”.

Question: And the MIC (M. tuberculosis H37Rv)?
Answer: Its MIC is 6 µg/mL (≈ 6.95 µM).

Question: And the MIC (K. pneumoniae)?
Answer: The MIC was 8 µg/mL (≈ 9.27 µM).

Question: For `CCCCCCCCCCCC1CC(=O)N[C@H](Cc2ccccc2)C(=O)N[C@H](CCCN)C(=O)N[C@@H](C(C)C)C(=O)N[C@@H]([C@@H](C)CC)C(=O)N[C@@H](Cc2ccccc2)C(=O)N[C@@H](C)C(=O)N[C@@H](Cc2ccccc2)C(=O)N1` (stereo partly shown) [SyCPA 144, mucilasyn] (HELM PEPTIDE1{A.F.[CCCCCCCCCCCC(CC(=O)[*:2])N[*:1]].[dF].[NCCC[C@@H](N[*:1])C(=O)[*:2]].V.I.F}$PEPTIDE1,PEPTIDE1,1:R1-8:R2$$$V2.0), which “Cytotoxicity (in words)” value (HeLa cells) is on record?
Answer: The value was “lack of toxicity to human cells in vitro”.
